Data published in ChEMBL document CHEMBL1123342 (J Med Chem, 1986).

Molecular target: Pancreatic elastase (Sus scrofa, UniProt P08419+P00772)
Test: Compound is evaluated for the inhibition of porcine pancreatic (PP) elastase
Assay type: protein

| SMILES | Ki [µM] |
| --- | --- |
| COC(=O)CCC(=O)N[C@@H](C)C(=O)N[C@@H](C)C(=O)N1CCC[C@H]1C(=O)CN(C(=O)Oc1ccc([N+](=O)[O-])cc1)C(C)C | 42.5 |
| COC(=O)CCC(=O)N[C@@H](C)C(=O)N[C@@H](C)C(=O)N1CCC[C@H]1C(=O)CN(C(=O)Sc1nnnn1-c1ccccc1)C(C)C | 2.4 |
| COC(=O)CCC(=O)N[C@@H](C)C(=O)N[C@@H](C)C(=O)N1CCC[C@H]1C(=O)CN(C(=O)Sc1nnnn1C)C(C)C | 19.5 |

Continued, values first:

| Ki [µM] | SMILES |
| --- | --- |
| 31.5 | COC(=O)CCC(=O)N[C@@H](C)C(=O)N[C@@H](C)C(=O)N1CCC[C@H]1C(=O)CN(C(=O)Oc1ccccc1)C(C)C |
| 35 | COC(=O)CCC(=O)N[C@@H](C)C(=O)N[C@@H](C)C(=O)N1CCC[C@H]1C(=O)CN(C(=O)Oc1c(F)c(F)c(F)c(F)c1F)C(C)C |
| 82.1 | COC(=O)CCC(=O)N[C@@H](C)C(=O)N[C@@H](C)C(=O)N1CCC[C@H]1C(=O)CN(C(=O)OCC(F)(F)C(F)(F)C(F)(F)F)C(C)C |
